# System: CHD (death from CHD, nonfatal MI, or revascularization)
# Assay: WOSCOPS: SNP by pravastatin treatment interaction, logistic regression (synergy index), CHD endpoint
# Type: in vivo, human
# Settings: for OR (synergy index), WOSCOPS, Prava vs Placebo: CHD endpoint; for OR (synergy index): WOSCOPS
# Excerpt: CARE was a secondary prevention trial and WOSCOPS was a primary prevention trial.
# The CHD endpoint was defined in the analyses herein of CARE as a composite endpoint of fatal CHD, definite non-fatal MI, or revascularization, and was defined in the analyses herein of WOSCOPS as a composite endpoint of death from CHD, nonfatal MI, or revascularization. In both the CARE and WOSCOPS analyses herein, the CVD endpoint was defined as a composite endpoint of CHD or stroke. […] Revascularization, which can include percutaneous transluminal coronary angioplasty (PTCA), stent placement, and coronary artery bypass graft (CABG), are medical interventions that indicate the presence of CHD.
# Cohort and case-only study designs were used to identify SNPs associated with response to statin treatment.
# For each SNP, a logistic regression model having treatment status as the dependent variable and SNP as the independent predictor variable was performed, with terms for age, sex and race included in the model as covariates. The anti-log of the regression coefficient corresponding to the SNP is an estimate of the synergy index (SI) (Davis et al., “Imputing gene-treatment interactions when the genotype distribution is unknown using case-only and putative placebo analyses-a new method for the Genetics of Hypertension Associated Treatment (GenHAT) study”, Statistics in Medicine 23: (2004), pages 2413-2427). The SI is a ratio of odds ratios: for example in the CARE and WOSCOPS studies, the SI represents the factor by which the odds-ratio of statin treatment, compared with placebo, among major homozygous individuals is multiplied by in order to obtain the odds-ratio of treatment vs. placebo among heterozygous individuals; and multiplied by a second time to obtain the odds-ratio of treatment vs. placebo in minor homozygous individuals. The case-only study design results in a valid estimate of the SI under the assumption that genotype and treatment are independent in the population. In a randomized clinical trial, genotype and treatment are independent by design. The p-value for the regression coefficient corresponding to the SNP results from a test of the null hypothesis that the regression coefficient is equal to zero (SI is equal to one) and thus small p-values indicate the SI is unlikely equal to one and that the effect of treatment likely differs by genotype. […]
structure (smiles),measurement,setting,value
"CC[C@H](C)C(=O)O[C@H]1C[C@H](O)C=C2C=C[C@H](C)[C@H](CC[C@@H](O)C[C@@H](O)CC(=O)O)[C@H]21 [Pravastatin, pravastatin]","OR (synergy index), WOSCOPS, Prava vs Placebo","SNP rs198462 (A1 G, A2 A), rec model, Caseonly",2.12
same,"OR (synergy index), WOSCOPS, Prava vs Placebo","SNP rs198476 (A1 G, A2 A), rec model, cohort",1.61
same,"OR (synergy index), WOSCOPS, Prava vs Placebo","SNP rs471579 (A1 A, A2 C), add model, Caseonly",1.62
same,"OR (synergy index), WOSCOPS, Prava vs Placebo","SNP rs1324012 (A1 A, A2 G), add model, Caseonly",0.60
same,"OR (synergy index), WOSCOPS, Prava vs Placebo","SNP rs1917527 (A1 A, A2 C), rec model, Caseonly",0.73
same,"OR (synergy index), WOSCOPS, Prava vs Placebo","SNP rs7873371 (A1 A, A2 G), add model, Caseonly",1.59
same,OR (synergy index),"rs992695, Imputed, allele (A1) C, model ADD, NMISS 431",0.7364
same,OR (synergy index),"rs992695, Imputed, allele (A1) C, model DOM, NMISS 431",0.6065
same,OR (synergy index),"rs9881685, Imputed, allele (A1) A, model ADD, NMISS 431",0.4853
same,OR (synergy index),"rs9881685, Imputed, allele (A1) A, model DOM, NMISS 431",0.4903
same,OR (synergy index),"rs9936999, Imputed, allele (A1) G, model DOM, NMISS 249",1.779
same,WOSCOPS OR,"rs1948, source CaseOnly, model dom, endpoint CHD",1.96
same,WOSCOPS OR,"rs198476, Source cohort",1.61
same,WOSCOPS OR,"rs238272, source CaseOnly, model add, endpoint CHD",1.46
same,WOSCOPS OR,"rs264122, Source cohort",0.66
same,OR (synergy index),"rs483159 allele T, DOM model, Imputed",1.412
same,OR (synergy index),"rs489441 allele G, ADD model, Imputed",1.6
same,OR (synergy index),"rs489441 allele G, DOM model, Imputed",1.651
same,WOSCOPS OR,"rs694780, Source caseonly",0.62
same,WOSCOPS OR,"rs842796, source CaseOnly, model dom, endpoint CHD",1.38
same,WOSCOPS OR,"rs886469, source CaseOnly, model dom, endpoint CHD",0.55
same,WOSCOPS OR,"rs912366, source CaseOnly, model dom, endpoint CHD",1.79
same,WOSCOPS OR,"rs969356, source CaseOnly, model dom, endpoint CHD",0.54
same,WOSCOPS OR,"rs1009748, Source cohort",1.35
same,WOSCOPS OR,"rs1015199, Source caseonly",1.66
same,WOSCOPS OR,"rs1190706, Source cohort",0.70
same,WOSCOPS OR,"rs1336400, Source caseonly",1.35
same,WOSCOPS OR,"rs1538185, source cohort, model dom, endpoint CHD",1.41
same,WOSCOPS OR,"rs1544214, source CaseOnly, model add, endpoint CHD",1.35
same,WOSCOPS OR,"rs1615197, source CaseOnly, model dom, endpoint CHD",2.25
same,WOSCOPS OR,"rs1705244, source CaseOnly, model dom, endpoint CHD",0.52
same,WOSCOPS OR,"rs1864924, source CaseOnly, model add, endpoint CHD",1.36
same,WOSCOPS OR,"rs1877986, source cohort, model dom, endpoint CHD",0.71
same,WOSCOPS OR,"rs1884897, source CaseOnly, model rec, endpoint CHD",1.78
same,WOSCOPS OR,"rs2008165, source cohort, model add, endpoint CHD",0.62
same,WOSCOPS OR,"rs2069542, source CaseOnly, model add, endpoint CHD",1.49
same,WOSCOPS OR,"rs2104506, source CaseOnly, model add, endpoint CHD",0.65
same,WOSCOPS OR,"rs2108425, Source caseonly",0.62
same,WOSCOPS OR,"rs2263901, source CaseOnly, model add, endpoint CHD",1.57
same,WOSCOPS OR,"rs2263920, source CaseOnly, model rec, endpoint CHD",0.41
same,WOSCOPS OR,"rs2265346, source CaseOnly, model dom, endpoint CHD",0.42
same,WOSCOPS OR,"rs2273816, source CaseOnly, model add, endpoint CHD",1.69
same,WOSCOPS OR,"rs2274473, source CaseOnly, model dom, endpoint CHD",0.48
same,WOSCOPS OR,"rs2327412, Source caseonly",1.41
same,WOSCOPS OR,"rs2418412, source cohort, model rec, endpoint CHD",1.58
same,WOSCOPS OR,"rs2616548, Source caseonly",1.37
same,WOSCOPS OR,"rs2648694, Source caseonly",2.29
same,WOSCOPS OR,"rs2655222, Source caseonly",0.20
same,WOSCOPS OR,"rs2941528, source CaseOnly, model add, endpoint CHD",0.58
same,WOSCOPS OR,"rs2993156, Source caseonly",0.76
same,WOSCOPS OR,"rs3732788, source CaseOnly, model add, endpoint CHD",0.44
same,WOSCOPS OR,"rs3759607, source CaseOnly, model dom, endpoint CHD",1.73
same,WOSCOPS OR,"rs3763978, Source cohort",0.68
same,WOSCOPS OR,"rs3998860, source CaseOnly, model add, endpoint CHD",0.70
same,WOSCOPS OR,"rs4240808, Source caseonly",0.61
same,WOSCOPS OR,"rs4242281, Source caseonly",1.46
same,OR (synergy index),"rs4315598 allele T, ADD model, Imputed",1.407
same,OR (synergy index),"rs4315598 allele T, REC model, Imputed",1.414
same,OR (synergy index),"rs4321395 allele A, DOM model, Imputed",0.5278
same,OR (synergy index),"rs4321596 allele T, REC model, Genotyped",3.01
same,OR (synergy index),"rs4324417 allele T, DOM model, Imputed",1.541
same,OR (synergy index),"rs4328619 allele G, DOM model, Genotyped",0.6446
same,OR (synergy index),"rs4338909 allele T, ADD model, Imputed",1.42
same,OR (synergy index),"rs4370878 allele G, DOM model, Imputed",1.497
same,OR (synergy index),"rs4379434 allele T, DOM model, Genotyped",1.603
same,OR (synergy index),"rs4416407 allele T, DOM model, Imputed",1.502
same,OR (synergy index),"rs4417899 allele C, REC model, Imputed",0.6657
same,WOSCOPS OR,"rs4420312, Source caseonly",0.64
same,OR (synergy index),"rs4442732 allele A, ADD model, Imputed",0.7543
same,OR (synergy index),"rs4444612 allele G, ADD model, Imputed",1.407
same,OR (synergy index),"rs4444612 allele G, REC model, Imputed",1.414
same,OR (synergy index),"rs4450660 allele C, DOM model, Imputed",1.776
same,OR (synergy index),"rs4509702 allele C, DOM model, Imputed",1.497
same,OR (synergy index),"rs4533145 allele T, DOM model, Imputed",0.6617
same,OR (synergy index),"rs4557006 allele A, DOM model, Imputed",0.5409
same,OR (synergy index),"rs4570530 allele C, DOM model, Imputed",1.497
same,OR (synergy index),"rs4615971 allele C, DOM model, Imputed",1.474
same,OR (synergy index),"rs4628119 allele A, DOM model, Imputed",0.5304
same,OR (synergy index),"rs4664443 allele G, ADD model, Imputed",0.6931
same,WOSCOPS OR,"rs4682522, source CaseOnly, model dom, endpoint CHD",0.49
same,OR (synergy index),"rs4688259 allele T, DOM model, Imputed",1.502
same,OR (synergy index),"rs4688632 allele G, REC model, Imputed",0.6718
same,OR (synergy index),"rs4695284 allele A, ADD model, Imputed",1.566
same,OR (synergy index),"rs4700302 allele A, ADD model, Imputed",0.5418
same,OR (synergy index),"rs4702720 allele A, ADD model, Imputed",0.7075
same,OR (synergy index),"rs4702720 allele A, DOM model, Imputed",0.7149
same,OR (synergy index),"rs4714484 allele A, ADD model, Imputed",0.5609

# — patent US10563263B2, “Genetic polymorphisms associated with statin response and cardiovascular diseases, methods of detection and uses thereof” (CELERA CORPORATION, priority 2010, dated 2020)
